# Measured values as given in US10921327B2, “Probes for quantitative imaging of thiols in various environments” (Baylor College of Medicine, priority 2014, dated 2021).
# What was measured:
# BSA = BSA (Bos taurus, UniProt P02769); test: Reaction specificity of TQ Green: BSA; design: species or system bovine; conditions: 5 mM BSA, PBS pH 7.4
# Method: For clarity, data points for TQ Green reaction with BSA, Cysteine, and PBS were offset by 0.1 units from each other on the y axis. Data points represent the absorbance of reaction mixtures of TQ Green (32 μM) with cysteine (100 μM, blue), BSA (5 mM, green), GSH (20 mM red) and water (black) in PBS (pH 7.4) at 480 nm, the maximum absorption wavelength for TQ Green.
# Proteins containing free thiol groups may also react with TQ Green to affect the measurement of GSH levels. On average, the protein concentration inside cells is 3×10^6 molecules/μm^3, which corresponds to a concentration of 5 mM. Assuming there is one free thiol on each protein molecule, 5 mM of bovine serum albumin (BSA) solution should reasonably mimic intracellular proteins because a) BSA has a free thiol on its surface; and b) the molecular weight of BSA (65 kDa) is close to the average molecular weight of intracellular proteins (˜50 kDa). […] Through these experiments and analyses, Applicants can conclude that TQ Green has good specificity towards GSH under physiological conditions.
# [1] = Reaction kinetics and reversibility of probe with GSH (UV-Vis)
# Method: The reaction between TQ Green and GSH is reversible.
# The second-order rate constant between TQ Green and GSH is 0.150±0.001M^−1·s^−1. There were no appreciable Abs changes observed after 20 minutes. Following a pause for another 80 minutes to ensure that the equilibrium between TQ Green and GSH was fully established, Applicants added two equivalents of an irreversible Michael acceptor (5,6-dihydro-2H-pyran-2-one) to deplete all the GSH in solution (FIG. 4A).
# GSH in PBS was added to a solution of TQ Green in PBS buffer (10 mM, pH 7.4) containing 1% DMSO. The final concentrations of GSH and TQ Green were 10 mM and 16 μM, respectively. The solutions were then monitored continuously with UV-Vis spectrometer (FIGS. 21A-D).
# BSA, sequence (P02769 25-607): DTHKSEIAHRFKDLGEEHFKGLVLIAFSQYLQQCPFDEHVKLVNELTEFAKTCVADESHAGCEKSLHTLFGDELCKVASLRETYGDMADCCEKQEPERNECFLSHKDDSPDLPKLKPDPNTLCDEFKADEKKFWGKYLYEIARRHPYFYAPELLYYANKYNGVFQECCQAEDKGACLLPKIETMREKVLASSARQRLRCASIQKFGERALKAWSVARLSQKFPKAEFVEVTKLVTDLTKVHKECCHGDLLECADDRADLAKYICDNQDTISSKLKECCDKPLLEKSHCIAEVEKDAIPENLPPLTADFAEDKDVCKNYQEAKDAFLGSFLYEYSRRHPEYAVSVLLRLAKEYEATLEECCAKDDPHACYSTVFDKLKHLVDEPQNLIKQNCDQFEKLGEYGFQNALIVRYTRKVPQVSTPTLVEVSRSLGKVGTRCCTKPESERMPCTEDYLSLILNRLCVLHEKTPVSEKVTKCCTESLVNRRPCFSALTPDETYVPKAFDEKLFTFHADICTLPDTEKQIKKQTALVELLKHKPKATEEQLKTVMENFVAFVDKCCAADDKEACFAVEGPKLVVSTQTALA
compound,measurement,setting,value
CCN(CC)c1ccc2cc(/C=C/C(=O)c3ccc(C(=O)O)cc3Br)c(=O)oc2c1 [TQ Green],Reaction with BSA,BSA,little reaction
same,Time to reach 95% of conversion,"[1]; 10 mM GSH in PBS, room temperature, TQ Green 16 μM, probe 3a 10 μM",~30 min
same,Time to establish equilibrium with GSH,"[1]; 37° C., intracellular environment, extrapolated",15 to 30 min
same,Second-Order Rate Constant,[1]; TQ Green and GSH,0.150 ± 0.001 M⁻¹ s⁻¹
